The target of one assay is T1, VEGFR-2 tyrosine kinase (Homo sapiens, UniProt P35968).
T1 construct: purchased BPS Bioscience 40301
The experiment in a line: In vitro VEGFR-2 tyrosine kinase assay (BPS Bioscience). Format: biochemical. Particulars: read-out: VEGFR-2 % inhibition; 10 μM concentration. Here is the method: The VEGFR tyrosine kinase assays were performed at BPS Bioscience (www.bpsbioscience.com). All the synthesised compounds representing the six series were evaluated for their ability to inhibit VEGFR-2 tyrosine kinase at single dose of 10 µM.
The VEGFR tyrosine kinase activity at single dose concentration of 10 μM was carried out by BPS Bioscience (www.bpsbioscience.com). VEGFR (BPS#40301) served as the enzyme source and Poly (Glu, Tyr) sodium salt, (4:1, Glu:Tyr) (Sigma#P7244) served as the standardized substrate & Kinase-Glo Plus Luminescence kinase assay kit (Promega#V3772). The IC50 determination was carried out where quality control testing is routinely performed on each of the targets to insure compliance to acceptable standards. ^33P-ATP was purchased from Perkin Elmer and ADP-Glo^TM was purchased from Promega. All other materials were of standard laboratory grade.
The VEGFR tyrosine kinase activity was performed using Kinase-Glo Plus luminescence kinase assay kit (Promega). It measures kinase activity by quantitating the amount of ATP remaining in solution following a kinase reaction. The luminescent signal from the assay is correlated with the amount of ATP present and is inversely correlated with the amount of kinase activity. The compounds were diluted to 100 μM in 10% DMSO and […] of the dilution was added to a […] reaction so that the final concentration of DMSO is 1% in all of reactions. All of the enzymatic reactions were conducted at 30 °C for 40 min. The 50 μl reaction mixture contains […], pH 7.4, […], 0.1 mg/ml BSA, 0.2 mg/ml Poly (Glu, Tyr) substrate, 10 μM ATP and VEGFR. After the enzymatic reaction, […] of Kinase-GloPlus Luminescence kinase assay solution (Promega) was added to each reaction and incubate the plate for 5 min at room temperature. Luminescence signal was measured using a BioTek Synergy 2 microplate reader. The protein kinase assays used to determine IC50 value were performed using ADP-GloTM assay kit from Promega which measures the generation of ADP by the protein kinase. Generation of ADP by the protein kinase reaction leads to an increase in luminescence signal in the presence of ADP-GloTM assay kit. The assay was started by incubating the reaction mixture in a 96-well plate at 30 °C for 30 min. After the 30 min incubation period, the assay was terminated by the addition of […] of ADP-GloTM Reagent (Promega). The 96 well plate was shaken and then incubated for 40 min at ambient temperature. […] of Kinase detection reagent was added, the 96-well reaction plate was then read using the ADP-Glo Luminescences Protocol on a GloMax plate reader (Promega: Catalog #E7031). Blank control was set up that included all the assay components except the addition of appropriate substrate (replace with equal volume of kinase assay buffer). The corrected activity for each protein kinase target was determined by removing the blank control value.
VEGFR activity assays were performed in duplicate at each concentration. The luminescence data were analyzed using the computer software, Graphpad Prism. The difference between luminescence intensities in the absence of VEGFR (Lut) and in the presence of VEGFR (Luc) was defined as 100% activity (Lut - Luc). […] IC50 determination for inhibitor against VEGFR was estimated by generating a graph of log inhibitor vs normalized response with variable using the Prism software.

The subject of a further assay is MDA-MB-468. The experiment in a line: NCI 60 cell panel SRB screen. Format: cell-based. Particulars: Homo sapiens; for activity at 10 µM: MDA-MB-468, MDA-MBA-468, single dose 10 μM, read-out: percent cell growth promotion; for GI50 / IC (TGI) / CC50: MDA-MB-468, 5 log dose; for CC50: 48 h, read-out: LC50 (the source's name). As to the method:
The human tumor cell lines of the cancer-screening panel were grown in RPMI 1640 medium containing 5% fetal bovine serum and […] L-glutamine. For a typical screening experiment, cells are inoculated into 96 well microtiter plates in 100 ml at plating densities ranging from 5000 to 40,000 cells/well depending on the doubling time of individual cell lines. After cell inoculation, the microtiter plates are incubated at 37 °C, 5% CO2, 95% air and 100%
relative humidity for 24 h prior to addition of experimental drugs. After 24 h, two plates of each cell line are fixed in situ with TCA, to represent a measurement of the cell population for each cell line at the time of drug addition (Tz). Experimental drugs are dissolved in dimethyl sulfoxide at 400-fold the desired final maximum test concentration and stored frozen prior to use. At the time of drug addition, an aliquot of frozen concentrate is thawed and diluted to twice the desired final maximum test concentration with complete medium containing […] Gentamicin. Additional four, 10-fold or ½log serial dilutions are made to provide a total of five drug concentrations plus control. Aliquots of […] of these different drug dilutions are added to the appropriate microtiter wells already containing 100 ml of medium, resulting in the required final drug concentrations. Following drug addition, the plates are incubated for an additional 48 h at 37 °C, 5% CO2, 95% air, and 100% relative humidity. For adherent cells, the assay is terminated by the addition of cold TCA. Cells are fixed in situ by the gentle addition of […] of cold 50% (w/v) TCA (final concentration,10% TCA) and incubated for 60 min at 4 °C. The supernatant is discarded, and the plates are washed five times with tap water and air dried. Sulforhodamine B (SRB) solution (100 ml) at 0.4% (w/v) in 1% acetic acid is added to each well, and plates are incubated for 10 min at room temperature. After staining, unbound dye is removed by washing five times with 1% acetic acid and the plates are air dried. Bound stain is subsequently dissolved with 10 μM trizma base, and the absorbance is read on an automated plate reader at a wavelength of 515 nm. For suspension cells, the methodology is the same except that the assay is terminated by fixing settled cells at the bottom of the wells by gently adding […] of 80% TCA (final concentration, 16% TCA).
Using the seven absorbance measurements [time zero, (Tz), control growth, (C), and test growth in the presence of drug at the five concentration levels (Ti)], the percentage growth is calculated at each of the drug concentrations levels. Percentage growth inhibition is calculated as: [(Ti -Tz)/(C - Tz)] x 100 for concentrations for which Ti>/ ¼ Tz and [(Ti -Tz) / Tz] x100 for concentrations for which Ti <Tz.
Three dose response parameters are calculated for each experimental agent. Growth inhibition of 50% (GI50) is calculated from [(Ti -Tz)/(C - Tz)] x 100 =50, which is the drug concentration resulting in a 50% reduction in the net protein increase (as measured by SRB staining) in control cells during the drug incubation. The drug concentration resulting in total growth inhibition (TGI) is calculated from Ti ¼ Tz. The LC50 (concentration of drug resulting in a 50% reduction in the measured protein at the end of the drug treatment as compared to that at the beginning) indicating a net loss of cells following treatment is calculated from [(Ti - Tz) / Tz] x100 = -50. Values are calculated for each of these three parameters if the level of activity is reached; however, if the effect is not reached or is exceeded, the value for that parameter is expressed as greater or less than the maximum or minimum concentration tested.

T1 sequence (P35968 20-1356): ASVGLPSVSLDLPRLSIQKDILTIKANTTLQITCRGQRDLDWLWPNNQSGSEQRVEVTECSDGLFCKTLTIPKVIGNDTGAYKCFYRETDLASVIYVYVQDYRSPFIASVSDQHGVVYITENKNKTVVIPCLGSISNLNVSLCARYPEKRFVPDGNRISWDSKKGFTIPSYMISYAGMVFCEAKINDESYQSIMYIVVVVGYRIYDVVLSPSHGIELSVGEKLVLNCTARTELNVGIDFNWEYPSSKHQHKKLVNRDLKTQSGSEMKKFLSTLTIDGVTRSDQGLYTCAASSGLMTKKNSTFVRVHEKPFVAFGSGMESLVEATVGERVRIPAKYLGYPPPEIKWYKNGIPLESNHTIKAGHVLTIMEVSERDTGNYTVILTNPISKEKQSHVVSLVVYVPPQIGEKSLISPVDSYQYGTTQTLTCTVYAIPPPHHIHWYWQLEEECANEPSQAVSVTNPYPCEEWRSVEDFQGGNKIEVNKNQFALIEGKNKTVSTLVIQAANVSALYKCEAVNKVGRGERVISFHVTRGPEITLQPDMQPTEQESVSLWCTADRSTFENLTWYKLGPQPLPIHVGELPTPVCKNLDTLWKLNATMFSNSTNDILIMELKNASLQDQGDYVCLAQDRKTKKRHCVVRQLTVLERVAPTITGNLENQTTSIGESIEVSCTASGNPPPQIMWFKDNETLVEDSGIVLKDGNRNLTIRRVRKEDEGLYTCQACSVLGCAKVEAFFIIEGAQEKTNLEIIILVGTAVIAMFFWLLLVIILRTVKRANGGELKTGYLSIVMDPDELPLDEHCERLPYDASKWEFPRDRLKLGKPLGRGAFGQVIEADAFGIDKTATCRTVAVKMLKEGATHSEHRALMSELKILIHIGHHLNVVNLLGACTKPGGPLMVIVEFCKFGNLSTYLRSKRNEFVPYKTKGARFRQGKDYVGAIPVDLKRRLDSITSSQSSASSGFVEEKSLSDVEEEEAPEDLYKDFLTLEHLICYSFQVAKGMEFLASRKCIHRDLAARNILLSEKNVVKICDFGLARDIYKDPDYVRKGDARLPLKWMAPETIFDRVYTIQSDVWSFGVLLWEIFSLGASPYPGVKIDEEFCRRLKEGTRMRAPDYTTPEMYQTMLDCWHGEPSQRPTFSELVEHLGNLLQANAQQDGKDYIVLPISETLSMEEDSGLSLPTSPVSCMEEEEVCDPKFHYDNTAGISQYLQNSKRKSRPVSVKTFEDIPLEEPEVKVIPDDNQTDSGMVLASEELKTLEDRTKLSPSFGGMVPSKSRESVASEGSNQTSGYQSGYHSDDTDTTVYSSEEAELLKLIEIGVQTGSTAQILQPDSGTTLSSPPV

As for `O=C(Nc1ccc(Nc2nncc3ccccc23)cc1)c1ccc(Cl)cc1` [Compound 5b, 4-Chloro-N-(4-(phthalazin-1-ylamino)phenyl)benzamide], at VEGFR-2 tyrosine kinase, the inhibition at 10 µM was 8%. Besides, the activity at 10 µM with MDA-MB-468 was found to be 101%.

Turning to `Cc1nnc(Nc2ccc(NC(=O)c3ccc(Cl)cc3)cc2)c2ccccc12` [Compound 5d, 4-Chloro-N-(4–(4-methylphthalazin-1-ylamino)phenyl)benzamide], at VEGFR-2 tyrosine kinase, the inhibition at 10 µM was found to be 15%. Moreover, the activity at 10 µM in the assay with MDA-MB-468 stood at 104%.

In the case of `O=C(Nc1ccc(Cl)cc1)Nc1ccc(Nc2nncc3ccccc23)cc1` [Compound 6b, 1–(4-Chlorophenyl)-3–(4-(phthalazin-1-ylamino)phenyl)urea], the inhibition at 10 µM at VEGFR-2 tyrosine kinase came out at 20%. In the assay with MDA-MB-468, the activity at 10 µM was 0.17%, it took 2.57 µM to inhibit growth by half (GI50), the IC (TGI) was determined as 9.47 µM and the CC50 is > 100 µM.

With `Cc1nnc(Nc2ccc(NC(=O)Nc3ccc(Cl)cc3)cc2)c2ccccc12` [Compound 6e, 1–(4-Chlorophenyl)-3–(4-(4-methylphthalazin-1-ylamino)phenyl)urea], the inhibition at 10 µM on VEGFR-2 tyrosine kinase was 19%. In the assay with MDA-MB-468, the activity at 10 µM was determined as 6.44%, growth was halved (GI50) at 2.84 µM, the IC (TGI) was 7.43 µM and the CC50 was 36.2 µM.

On to `O=C(Nc1ccc(Cl)cc1)Nc1ccc(Oc2nncc3ccccc23)cc1` [Compound 7b, 1–(4-Chlorophenyl)-3–(4-(phthalazin-1-yloxy)phenyl)urea], for which the inhibition at 10 µM on VEGFR-2 tyrosine kinase was 13%. For the same compound, in the assay on MDA-MB-468, the activity at 10 µM is -76.2%, the GI50 came out at 0.75 µM, the IC (TGI) is 2.52 µM and the CC50 was determined as 7.18 µM.

Turning to `Cc1nnc(Oc2ccc(NC(=O)Nc3ccc(Cl)cc3)cc2)c2ccccc12` [Compound 7e, 1–(4-Chlorophenyl)-3–(4-(4-methylphthalazin-1-yloxy)phenyl)urea], the inhibition at 10 µM on VEGFR-2 tyrosine kinase worked out at 14%. The activity at 10 µM in the assay with MDA-MB-468 is 68.6%.

With `CCOC(=O)N1CCN(c2nncc3ccccc23)CC1` [Compound 8a, Ethyl 4-(phthalazin-1-yl)piperazine-1-carboxylate], the inhibition at 10 µM at VEGFR-2 tyrosine kinase came out at 13%. In the assay on MDA-MB-468, the activity at 10 µM stood at 97.7%.

For the compound `c1ccc(N2CCN(c3nncc4ccccc34)CC2)nc1` [Compound 8d, 1–(4-(Pyridin-2-yl)piperazin-1-yl)phthalazine], the inhibition at 10 µM on VEGFR-2 tyrosine kinase was 5%. Further, the activity at 10 µM in the assay on MDA-MB-468 was 93.3%.

Consider `CCOC(=O)N1CCN(c2nnc(C)c3ccccc23)CC1` [Compound 8f, Ethyl 4–(4-methylphthalazin-1-yl)piperazine-1-carboxylate], for which the inhibition at 10 µM on VEGFR-2 tyrosine kinase is 14%. Moreover, in the assay with MDA-MB-468, the activity at 10 µM came to 104%.

Turning to `Cc1nnc(N2CCN(c3ccccc3)CC2)c2ccccc12` [Compound 8g, 1-Methyl-4–(4-phenylpiperazin-1-yl)phthalazine], the inhibition at 10 µM at VEGFR-2 tyrosine kinase was determined as 13%. Also, in the assay with MDA-MB-468, the activity at 10 µM was 98.8%.

Take `Cc1nnc(N2CCN(c3ccccc3F)CC2)c2ccccc12` [Compound 8h, 1–(4-(2-Fluorophenyl)piperazin-1-yl)-4-methylphthalazine]: the inhibition at 10 µM on VEGFR-2 tyrosine kinase turned out to be 9%. Besides, in the assay on MDA-MB-468, the activity at 10 µM was determined as 84.8%.

Consider `Cc1nnc(N2CCN(c3ccccn3)CC2)c2ccccc12` [Compound 8i, 1-Methyl-4–(4-(pyridin-2-yl)piperazin-1-yl)phthalazine], for which, at VEGFR-2 tyrosine kinase, the inhibition at 10 µM came out at 6%. Besides, the activity at 10 µM with MDA-MB-468 amounted to 87.4%.

As to `O=C(Nc1ccccc1)Nc1ccc(Oc2nnc(Cl)c3ccccc23)cc1` [Compound 13a, 1–(4-(4-Chlorophthalazin-1-yloxy)phenyl)-3-phenylurea], on VEGFR-2 tyrosine kinase, the inhibition at 10 µM worked out at 24%. Further, in the assay with MDA-MB-468, the activity at 10 µM amounted to 0.47%, growth was halved (GI50) at 7.58 µM, the IC (TGI) is 7.56 µM and the CC50 was > 25 µM.

Regarding `O=C(Nc1ccc(Cl)cc1)Nc1ccc(Oc2nnc(Cl)c3ccccc23)cc1` [Compound 13b, 1–(4-Chlorophenyl)-3–(4-(4-chlorophthalazin-1-yloxy)phenyl)urea], on VEGFR-2 tyrosine kinase, the inhibition at 10 µM was found to be 38%. Also, the activity at 10 µM with MDA-MB-468 was determined as 84.9%.

For the compound `Clc1ccc(Nc2nnc(CNc3ccccc3)c3ccccc23)cc1` [Compound 16a, N-(4-Chlorophenyl)-4-((phenylamino)methyl)phthalazin-1-amine], the inhibition at 10 µM on VEGFR-2 tyrosine kinase was determined as 47%. Moreover, in the assay on MDA-MB-468, the activity at 10 µM is -16.4%, the concentration for 50% growth inhibition (GI50) turned out to be 1.9 µM, the IC (TGI) stood at 11.5 µM and the CC50 was > 25 µM.

Turning to `COc1cccc(NCc2nnc(Nc3ccc(Cl)cc3)c3ccccc23)c1` [Compound 16d, N-(4-Chlorophenyl)-4-((3-methoxyphenylamino)methyl)phthalazin-1-amine], at VEGFR-2 tyrosine kinase, the inhibition at 10 µM was 24%. In the assay on MDA-MB-468, the activity at 10 µM is -21.9%, the 50% growth inhibitory concentration (GI50) came out at 1.05 µM, the IC (TGI) was 4.73 µM and the CC50 is 19.5 µM.

For `Clc1ccc(Nc2nnc(COc3ccccc3)c3ccccc23)cc1` [Compound 17a, N-(4-Chlorophenyl)-4-(phenoxymethyl)phthalazin-1-amine], at VEGFR-2 tyrosine kinase, the inhibition at 10 µM was 31%. In the assay with MDA-MB-468, the activity at 10 µM is -16.9%, growth was halved (GI50) at 1.49 µM, the IC (TGI) is 7.62 µM and the CC50 is > 25 µM.

As a reminder, the inhibition is the relative decrease from the control value, in per cent. The GI50 is the concentration that inhibits growth by half. A low value points to more potent growth inhibition.
